Measured values published in patent publication US20230286958A1, “PLASMA KALLIKREIN INHIBITORS” (Merck Sharp & Dohme LLC, priority 2020, published 2023).

How the values were obtained:
human Factor XIa = human Factor XIa (Homo sapiens (Human), UniProt P03951); assay: Factor XIa Assay (fluorogenic substrate GPR-AFC); format: biochemical; conditions: Factor XIa (FXIa)
Human plasma kallikrein = Human plasma kallikrein (Homo sapiens (Human), UniProt P03952); assay: Kallikrein Assay (fluorogenic substrate Acetyl-K-P-R-AFC); format: biochemical; conditions: Plasma Kallikrein (PKal)
Procedure, shortened: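 Ki is derived from IC50 with the Cheng-Prusoff equation, and IC50 from the inflection point of a four-parameter logistic curve. The rate of AFC release is read with 0.5 nM purified enzyme and […] substrate at room temperature or 37 °C.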

Sequence of Human plasma kallikrein (P03952 391-638): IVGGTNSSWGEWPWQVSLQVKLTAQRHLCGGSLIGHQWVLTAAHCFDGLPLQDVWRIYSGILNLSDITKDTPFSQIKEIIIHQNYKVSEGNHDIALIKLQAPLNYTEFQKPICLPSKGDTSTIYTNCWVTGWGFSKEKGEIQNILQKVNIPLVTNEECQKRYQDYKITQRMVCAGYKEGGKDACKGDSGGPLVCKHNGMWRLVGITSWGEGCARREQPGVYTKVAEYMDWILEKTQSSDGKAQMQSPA
Sequence of Human plasma kallikrein (P03952 20-390 partner): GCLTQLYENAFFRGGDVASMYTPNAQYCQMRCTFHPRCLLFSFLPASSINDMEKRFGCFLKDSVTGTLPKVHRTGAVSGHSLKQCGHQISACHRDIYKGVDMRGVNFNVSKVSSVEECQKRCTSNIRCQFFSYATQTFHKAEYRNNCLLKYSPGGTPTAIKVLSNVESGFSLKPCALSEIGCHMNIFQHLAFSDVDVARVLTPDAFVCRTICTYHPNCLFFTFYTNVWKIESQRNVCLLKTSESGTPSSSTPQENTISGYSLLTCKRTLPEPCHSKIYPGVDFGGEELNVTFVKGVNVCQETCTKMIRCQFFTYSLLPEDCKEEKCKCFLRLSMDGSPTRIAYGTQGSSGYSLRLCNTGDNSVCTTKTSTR
Sequence of human Factor XIa (P03951 388-625 limits assumed): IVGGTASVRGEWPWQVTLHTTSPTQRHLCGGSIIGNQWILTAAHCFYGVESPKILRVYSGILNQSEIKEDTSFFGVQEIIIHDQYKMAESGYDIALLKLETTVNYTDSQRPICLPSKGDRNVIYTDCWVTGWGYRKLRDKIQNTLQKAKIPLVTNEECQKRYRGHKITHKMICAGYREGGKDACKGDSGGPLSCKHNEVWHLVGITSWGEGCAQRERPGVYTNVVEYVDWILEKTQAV
Sequence of human Factor XIa (P03951 19-387 partner limits assumed): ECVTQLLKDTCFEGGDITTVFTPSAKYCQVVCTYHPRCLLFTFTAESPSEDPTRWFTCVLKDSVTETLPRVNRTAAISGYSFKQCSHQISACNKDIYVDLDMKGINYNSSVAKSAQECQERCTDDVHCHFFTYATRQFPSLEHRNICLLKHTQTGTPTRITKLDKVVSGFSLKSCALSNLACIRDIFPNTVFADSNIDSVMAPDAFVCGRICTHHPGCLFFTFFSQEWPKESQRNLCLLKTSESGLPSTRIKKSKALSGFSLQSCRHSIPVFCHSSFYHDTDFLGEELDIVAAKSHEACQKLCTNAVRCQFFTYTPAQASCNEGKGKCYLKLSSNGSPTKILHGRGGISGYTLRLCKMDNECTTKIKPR

SMILES | IC50 (human Factor XIa) | IC50 (Human plasma kallikrein)
CC(c1ccc(N2C[C@H]3C[C@H]3C2=O)nc1)n1cc(NC(=O)c2cncc(-c3c(C#N)ccc(Cl)c3F)n2)cn1 (single isomer, unassigned) [Example 90, 6-(3-Chloro-6-cyano-2-fluorophenyl)-N-(1-((R or S)-1-(6-((1R,SS)-2-oxo-3-azabicyclo[3.1.0]hexan-3-yl)pyridin-3-yl)ethyl)-1H-pyrazol-4-yl)pyrazine-2-carboxamide] | > 10000 nM | 13.7 nM
CC(c1cnc(N2C[C@H]3C[C@H]3C2=O)c(F)c1)n1cc(NC(=O)c2nc(-c3c(C(F)F)ccc(Cl)c3F)cnc2COC(C)(C)C)cn1 (single isomer, unassigned) [Example 144, 3-(tert-Butoxymethyl)-6-(3-chloro-6-(difluoromethyl)-2-fluorophenyl)-N-(1-((R or S)-1-(5-fluoro-6-((1R,5S)-2-oxo-3-azabicyclo[3.1.0]hexan-3-yl)pyridin-3-yl)ethyl)-1H-pyrazol-4-yl)pyrazine-2-carboxamide] | > 10000 nM | 1.6 nM
Cc1nc(C(C)n2cc(NC(=O)c3nc(-c4c(C(F)F)ccc(Cl)c4F)cnc3COC(C)(C)C)cn2)cnc1N1C[C@H]2C[C@H]2C1=O (mixture of isomers) [Example 196, 3-(tert-Butoxymethyl)-6-(3-chloro-6-(difluoromethyl)-2-fluorophenyl)-N-(1-((S and R)-1-(6-methyl-5-((1R,5S)-2-oxo-3-azabicyclo[3.1.0]hexan-3-yl)pyrazin-2-yl)ethyl)-1H-pyrazol-4-yl)pyrazine-2-carboxamide] | 2090 nM | 0.9 nM
COc1cc(C(C)n2cc(NC(=O)c3nc(-c4c(C(F)F)ccc(Cl)c4F)cnc3C)cn2)cnc1N1C[C@H]2C[C@H]2C1=O (single isomer, unassigned) [Example 218, 6-(3-Chloro-6-(difluoromethyl)-2-fluorophenyl)-N(1-((S or R)-1-(5-methoxy-6-((1R,5S)-2-oxo-3-azabicyclo[3.1.0]hexan-3-yl)pyridin-3-yl)ethyl)-1H-pyrazol-4-yl)-3-methylpyrazine-2-carboxamide] | 414 nM | 1.8 nM
Cc1nc(C2(n3cc(NC(=O)c4nc(-c5c(C(F)F)ccc(Cl)c5F)cnc4CO)cn3)CC2)cnc1N1C[C@H]2C[C@H]2C1=O [Example 223, 6-(3-Chloro-6-(difluoromethyl)-2-fluorophenyl)-3-(hydroxymethyl)-N-(1-(1-(6-methyl-5-((1R,5S)-2-oxo-3-azabicyclo[3.1.0]hexan-3-yl)pyrazin-2-yl)cyclopropyl)-1H-pyrazol-4-yl)pyrazine-2-carboxamide] | 1840 nM | 1 nM
Cc1nc(C(C)n2cc(NC(=O)c3nc(-c4c(C(F)F)ccc(Cl)c4F)cnc3C)cn2)ccc1N1C[C@H]2C[C@H]2C1=O (single isomer, unassigned) [Example 58, 6-(3-Chloro-6-(difluoromethyl)-2-fluorophenyl)-3-methyl-N-(1-((S or R)-1-(6-methyl-5-((1R,5S)-2-oxo-3-azabicyclo[3.1.0]hexan-3-yl)pyridin-2-yl)ethyl)-1H-pyrazol-4-yl)pyrazine-2-carboxamide] | > 10000 nM | 0.6 nM
Cc1ncc(-c2c(C(F)F)ccc(Cl)c2F)nc1C(=O)Nc1cnn(Cc2nnc(N3C[C@H]4C[C@H]4C3=O)c(C)c2C)c1 [Example 88, 6-(3-Chloro-6-(difluoromethyl)-2-fluorophenyl)-N-(1-((4,5-dimethyl-6-((1R,5S)-2-oxo-3-azabicyclo[3.1.0]hexan-3-yl)pyridazin-3-yl)methyl)-1H-pyrazol-4-yl)-3-methylpyrazine-2-carboxamide] | 127 nM | 0.7 nM
Cc1ncc(-c2c(C(F)F)ccc(Cl)c2F)nc1C(=O)Nc1cnn(C(C)c2cnc(N3C[C@H]4C[C@H]4C3=O)c(F)c2)c1 (single isomer, unassigned) [Example 52, 6-(3-Chloro-6-(difluoromethyl)-2-fluorophenyl)-N-(1-((R or S)-1-(S-fluoro-6-((1R,5S)-2-oxo-3-azabicyclo[3.1.0]hexan-3-yl)pyridin-3-yl)ethyl)-1H-pyrazol-4-yl)-3-methylpyrazine-2-carboxamide] | 4830 nM | 1.1 nM
Cc1nc(C(C)n2cc(NC(=O)c3cncc(-c4c(C(F)F)ccc(Cl)c4F)n3)cn2)cnc1N1C[C@H]2C[C@H]2C1=O (single isomer, unassigned) [Example 12, 6-(3-Chloro-6-(difluoromethyl)-2-fluorophenyl)-N-(1-((S or R)-1-(6-methyl-5-((1R,5S)-2-oxo-3-azabicyclo[3.1.0]hexan-3-yl)pyrazin-2-yl)ethyl)-1H-pyrazol-4-yl)pyrazine-2-carboxamide] | 1160 nM | 1.9 nM
Cc1ccc(Cl)c(F)c1-c1cnc(C)c(C(=O)Nc2cnn(Cc3nnc(N4C[C@H]5C[C@H]5C4=O)c(C)c3C)c2)n1 [Example 112, 6-(3 -Chloro-2-fluoro-6-methylphenyl)-N-(1-((4,5-dimethyl-6-((1R,5S)-2-oxo-3-azabicyclo[3.1.0]hexan-3-yl)pyridazin-3-yl)methyl)-1H-pyrazol-4-yl)-3-methylpyrazine-2-carboxamide] | 1200 nM | 4.8 nM
[2H]C1([2H])C2CC2C(=O)N1c1ncc([C@H](C)n2cc(NC(=O)c3nc(-c4c(C(F)F)ccc(Cl)c4F)cnc3C)cn2)c(C)n1 (single isomer, unassigned) [Example 178, 6-(3-Chloro-6-(difluoromethyl)-2-fluorophenyl)-3-methyl-N-(1-((S)-1-(4-methyl-2-((1R,5S or 1S,5R)-2-oxo-3-azabicyclo[3.1.0]hexan-3-yl-4,4-d2)pyrimidin-5-yl)ethyl)-1H-pyrazol-4-yl)pyrazine-2-carboxamide] | 4530 nM | 14.2 nM
Cc1c(C(C)n2cc(NC(=O)c3cncc(-c4c(OC(F)F)ccc(Cl)c4F)n3)cn2)cnc(N2C[C@H]3C[C@H]3C2=O)c1F (single isomer, unassigned) [Example 134, 6-(3-Chloro-6-(difluoromethoxy)-2-fluorophenyl)-N-(1-((R or S)-1-(5-fluoro-4-methyl-6-((1R,5S)-2-oxo-3-azabicyclo[3.1.0]hexan-3-yl)pyridin-3-yl)ethyl)-1H-pyrazol-4-yl)pyrazine-2-carboxamide] | 5570 nM | 13.9 nM
Cc1ncc(-c2c(C(F)F)ccc(Cl)c2F)nc1C(=O)Nc1cnn(C(C)c2cnc(N3C[C@H]4C[C@H]4C3=O)c(F)c2)c1 (single isomer, unassigned) [Example 51, 6-(3-Chloro-6-(difluoromethyl)-2-fluorophenyl)-N-(1-((S or R)-1-(5-fluoro-6-((1R,SS)-2-oxo-3-azabicyclo[3.1.0]hexan-3-yl)pyridin-3-yl)ethyl)-1H-pyrazol-4-yl)-3-methylpyrazine-2-carboxamide] | 1380 nM | 2.4 nM
Cc1nc(C2(n3cc(NC(=O)c4nc(-c5c(C(F)F)ccc(Cl)c5F)cnc4COC(C)(C)C)cn3)CC2)cnc1N1C[C@H]2C[C@H]2C1=O [Example 222, 3-(tert-Butoxymethyl)-6-(3-chloro-6-(difluoromethyl)-2-fluorophenyl)-N-(1-(1-(6-methyl-5-((1R,5S)-2-oxo-3-azabicyclo[3.1.0]hexan-3-yl)pyrazin-2-yl)cyclopropyl)-1H-pyrazol-4-yl)pyrazine-2-carboxamide] | > 10000 nM | 16.7 nM
Cc1nc(N2C[C@H]3C[C@H]3C2=O)cnc1C(C)n1cc(NC(=O)c2cncc(-c3c(C(F)F)ccc(Cl)c3F)n2)cn1 (single isomer, unassigned) [Example 53, 6-(3-Chloro-6-(difluoromethyl)-2-fluorophenyl)-N-(1-((S or R)-1-(3-methyl-5-((1R,5S)-2-oxo-3-azabicyclo[3.1.0]hexan-3-yl)pyrazin-2-yl)ethyl)-1H-pyrazol-4-yl)pyrazine-2-carboxamide] | 6630 nM | 38.3 nM
Cc1nc(C(C)n2cc(NC(=O)c3cncc(-c4c(OC(F)F)ccc(Cl)c4F)n3)cn2)cnc1N1C[C@H]2C[C@H]2C1=O (single isomer, unassigned) [Example 16, 6-(3-Chloro-6-(difluoromethoxy)-2-fluorophenyl)-N-(1-((S or R)-1-(6-methyl-5-((1R,5S)-2-oxo-3-azabicyclo[3.1.0]hexan-3-yl)pyrazin-2-yl)ethyl)-1H-pyrazol-4-yl)pyrazine-2-carboxamide] | 772 nM | 1.9 nM
Cc1cc([C@@H](C)n2cc(NC(=O)c3nc(-c4c(OC(F)F)ccc(Cl)c4F)cnc3CO)cn2)cnc1N1C[C@H]2C[C@H]2C1=O [Example 227, 6-(3-Chloro-6-(difluoromethoxy)-2-fluorophenyl)-3-(hydroxymethyl)-N-(1-((R)-1-(5-methyl-6-((1R,5S)-2-oxo-3-azabicyclo[3.1.0]hexan-3-yl)pyridin-3-yl)ethyl)-1H-pyrazol-4-yl)pyrazine-2-carboxamide] | 25 nM | 0.6 nM
O=C(Nc1cnn(Cc2cnc(N3C[C@H]4C[C@H]4C3=O)nc2)c1)c1nc(-c2c(C(F)F)ccc(Cl)c2F)cnc1COC1CC1 [Example 116, 6-(3-Chloro-6-(difluoromethyl)-2-fluorophenyl)-3-(cyclopropoxymethyl)-N-(1-((2-((1R,5S)-2-oxo-3-azabicyclo[3.1.0]hexan-3-yl)pyrimidin-5-yl)methyl)-1H-pyrazol-4-yl)pyrazine-2-carboxamide] | 4380 nM | 19.1 nM
Cc1ncc(-c2c(C(F)F)ccc(Cl)c2F)nc1C(=O)Nc1cnn(C(C)c2cnc(N3C[C@H]4C[C@H]4C3=O)c3c2OCO3)c1 (single isomer, unassigned) [Example 253, 6-(3-Chloro-6-(difluoromethyl)-2-fluorophenyl)-3-methyl-N-(1-((S or R)-1-(4-((1R,5S)-2-oxo-3-azabicyclo[3.1.0]hexan-3-yl)-[1,3]dioxolo[4,5-c]pyridin-7-yl)ethyl)-IH-pyrazol-4-yl)pyrazine-2-carboxamide] | 733 nM | 2.2 nM
